Read-outs that look alike come from different tables or passages of the source.
What was measured:
[1] = biological target: full-length human PRMT1 isoform 1 (GST-tagged) (Homo sapiens, UniProt Q99873); assay: PRMT1 Biochemical Assay (3H-SAM Flashplate, peptide substrate)
Source text: (§1) General Materials. S-adenosylmethionine (SAM), S-adenosylhomocysteine (SAH), bicine, Tween20, dimethylsulfoxide (DMSO), bovine skin gelatin (BSG), and Tris(2-carboxyethyl)phosphine hydrochloride solution (TCEP) were purchased from Sigma-Aldrich at the highest level of purity possible. ^3H-SAM was purchase from American Radiolabeled Chemicals with a specific activity of 80 Ci/mmol. 384-well streptavidin Flashplates were purchased from PerkinElmer.
Protein Expression. Recombinant baculovirus were generated according to Bac-to-Bac kit instructions (Life Technologies). […] Infections were carried out at 27° C. for 48 hours, harvested by centrifugation, and stored at −80° C. for purification.
Protein Purification. […] GST-tagged PRMT1 was eluted with 50 mM Tris, 2 mM glutathione, pH 7.8, dialysed in buffer A and concentrated to 1 mg/mL.
General Procedure for PRMT1 Enzyme Assays on Peptide Substrates. The assays were all performed in a buffer consisting of 20 mM Bicine (pH=7.6), 1 mM TCEP, 0.005% BSG, and 0.002% Tween 20, prepared on the day of use. […] DMSO (1 ul) was added to Columns 11, 12, 23, 24, rows A-H for the maximum signal control and 1 ul of SAH, a known product and inhibitor of PRMT1, was added to columns 11, 12, 23, 24, rows I-P for the minimum signal control. A cocktail (40 ul) containing the PRMT1 enzyme was added by Multidrop Combi (Thermo-Fisher). The compounds were allowed to incubate with PRMT1 for 30 min at room temperature, then a cocktail (10 ul) containing SAM and peptide was added to initiate the reaction (final volume=51 ul). […] The assays were stopped by the addition of non-radiolabeled SAM (10 ul) to a final concentration of 300 uM, which dilutes the ^3H-SAM to a level where its incorporation into the peptide substrate is no longer detectable. 50 ul of the reaction in the 384-well polypropylene plate was then transferred to a 384-well Flashplate and the biotinylated peptides were allowed to bind to the streptavidin surface for at least 1 hour before being washed once with 0.1% Tween20 in a Biotek ELx405 plate washer. The plates were then read in a PerkinElmer TopCount plate reader to measure the quantity of ^3H-labeled peptide bound to the Flashplate surface, measured as disintegrations per minute (dpm) or alternatively, referred to as counts per minute (cpm).
Where dpm=disintegrations per minute, cmpd=signal in assay well, and min and max are the respective minimum and maximum signal controls.
Where top and bottom are the normally allowed to float, but may be fixed at 100 or 0 respectively in a 3-parameter fit. The Hill Coefficient normally allowed to float but may also be fixed at 1 in a 3-parameter fit. Y is the % inhibition and X is the compound concentration.

[2] = biological target: full-length human PRMT8 isoform 1 (Homo sapiens, UniProt Q9NR22); assay: PRMT8 Biochemical Assay (3H-SAM Flashplate, peptide substrate); settings: read-out: Biochemical IC50 PRMT8
Source text: as §1, with “(BSG), isopropyl-β-D-thiogalactopyranoside (IPTG),” for “(BSG),”
Substrates. Peptide representative of human histone H4 residues 31-45 was synthesized with an N-terminal linker-affinity tag motif and a C-terminal amide cap by 21st Century Biochemicals. The peptide was purified by high-performance liquid chromatography (HPLC) to greater than 95% purity and confirmed by liquid chromatography mass spectrometry (LC-MS). The sequence was Biot-Ahx-[…]-amide (SEQ ID NO.:8).
The resulting construct encodes an N-terminal GST tag and a thrombin cleavage sequence ([…] […] […] […] SPEF) (SEQ ID NO.:9) fused directly to Met 1 of PRMT8.
Protein Expression. E. coli (BL21(DE3) Gold, Stratagene) made competent by the CaCl2) method were transformed with the PRMT8 construct and ampicillin selection. Protein over-expression was accomplished by growing the PRMT8 expressing E. coli clone and inducing expression with 0.3 mM IPTG at 16° C. The culture was grown for 12 hours, harvested by centrifugation, and stored at −80° C. for purification.
Protein Purification. […] GST-tagged PRMT8 was eluted with 50 mM Tris, 2 mM glutathione, pH 7.8. Pooled fractions were cleaved by thrombin (10U) and dialysed in buffer A. GST was removed by reloading the cleaved protein sample onto glutathione sepharose column and PRMT8 was collected in the flow-through fractions. PRMT8 was purified further by ceramic hydroxyapatite chromatography. The column was washed with 50 mM phosphate buffer, 100 mM NaCl, 5% glycerol, 5 mM β-mercaptoethanol, pH 7.8 and PRMT8 was eluted by 100 mM phosphate in the same buffer. Protein was concentrated and buffer was exchanged to 50 mM Tris, 300 mM NaCl, 10% glycerol, 5 mM β-mercaptoethanol, pH 7.8 by ultrafiltration. The purity of recovered protein was 89%.
General Procedure for PRMT8 Enzyme Assays on Peptide Substrates. The assays were all performed in a buffer consisting of 20 mM Bicine (pH=7.6), 1 mM TCEP, 0.005% BSG, and 0.002% Tween 20, prepared on the day of use. Compounds in 100% DMSO (1 ul) were spotted into a polypropylene 384-well V-bottom plates (Greiner) using a Platemate Plus outfitted with a 384-channel head (Thermo Scientific). DMSO (1 ul) was added to Columns 11, 12, 23, 24, rows A-H for the maximum signal control and 1 ul of SAH, a known product and inhibitor of PRMT8, was added to columns 11, 12, 23, 24, rows I-P for the minimum signal control. A cocktail (40 ul) containing the PRMT8 enzyme was added by Multidrop Combi (Thermo-Fisher). The compounds were allowed to incubate with PRMT8 for 30 min at room temperature, then a cocktail (10 ul) containing ^3H-SAM and peptide was added to initiate the reaction (final volume=51 ul). The final concentrations of the components were as follows: PRMT8 was 1.5 nM, ^3H-SAM was 50 nM, non-radiolabeled SAM was 550 nM, peptide was 150 nM, SAH in the minimum signal control wells was 1 mM, and the DMSO concentration was 2%. The assays were stopped by the addition of non-radiolabeled SAM (10 ul) to a final concentration of 400 uM, which dilutes the ^3H-SAM to a level where its incorporation into the peptide substrate is no longer detectable. 50 ul of the reaction in the 384-well polypropylene plate was then transferred to a 384-well Flashplate and the biotinylated peptides were allowed to bind to the streptavidin surface for at least 1 hour before being washed once with 0.1% Tween20 in a Biotek ELx405 plate washer. […]

[3] = single experiment or average of multiple experiments

Chain of full-length human PRMT8 isoform 1 (Q9NR22 whole entry, canonical isoform): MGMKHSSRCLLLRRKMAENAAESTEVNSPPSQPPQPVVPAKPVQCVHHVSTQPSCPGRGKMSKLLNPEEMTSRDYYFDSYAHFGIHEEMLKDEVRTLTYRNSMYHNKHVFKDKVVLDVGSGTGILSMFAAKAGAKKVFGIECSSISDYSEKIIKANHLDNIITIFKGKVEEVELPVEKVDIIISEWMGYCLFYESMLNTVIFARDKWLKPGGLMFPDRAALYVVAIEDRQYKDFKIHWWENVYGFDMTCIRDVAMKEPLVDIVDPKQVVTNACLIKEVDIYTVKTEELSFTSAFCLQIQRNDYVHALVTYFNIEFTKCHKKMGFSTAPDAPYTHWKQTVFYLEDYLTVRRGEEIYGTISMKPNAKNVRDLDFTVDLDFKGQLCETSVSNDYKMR
Chain of full-length human PRMT1 isoform 1 (GST-tagged) (Q99873 with tags, fused parts or gaps): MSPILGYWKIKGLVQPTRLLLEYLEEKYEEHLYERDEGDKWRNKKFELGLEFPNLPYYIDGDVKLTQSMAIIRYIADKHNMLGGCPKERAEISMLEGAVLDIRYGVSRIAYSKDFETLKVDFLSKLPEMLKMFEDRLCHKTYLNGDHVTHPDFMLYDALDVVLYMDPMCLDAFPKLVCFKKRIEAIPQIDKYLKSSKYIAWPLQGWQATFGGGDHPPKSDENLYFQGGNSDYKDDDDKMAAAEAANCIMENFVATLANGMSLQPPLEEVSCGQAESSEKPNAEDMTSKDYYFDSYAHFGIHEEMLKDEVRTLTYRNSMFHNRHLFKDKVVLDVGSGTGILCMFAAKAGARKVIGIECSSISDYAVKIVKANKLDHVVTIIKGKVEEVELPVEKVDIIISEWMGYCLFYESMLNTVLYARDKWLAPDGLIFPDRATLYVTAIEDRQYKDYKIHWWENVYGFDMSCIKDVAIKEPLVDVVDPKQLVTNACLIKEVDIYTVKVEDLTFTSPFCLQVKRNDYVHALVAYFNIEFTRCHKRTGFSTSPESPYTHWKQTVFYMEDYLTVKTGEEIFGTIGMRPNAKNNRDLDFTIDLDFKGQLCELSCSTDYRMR

Row | Compound | IC50 [1] | IC50 [1, 3] | IC50 [2] | IC50 [2, 3]
1 | CNCCN(C)Cc1c[nH]nc1[C@H]1CC[C@@H](O)C2(CCCCC2)C1 (single isomer, unassigned) [Compound 183] | < 100 nM | 13.5 nM | < 100 nM | 39.4 nM
2 | CNCCN(C)Cc1c[nH]nc1C1CCC2(CC1)CCN(CC(C)C)C2=O (stereo not drawn) [Compound 164] | < 100 nM | 19.7 nM | < 100 nM | 19.1 nM
3 | CNCCN(C)Cc1c[nH]nc1C1CCC(=O)N(CCC(C)C)C1 (stereo not drawn) [Compound 117] | < 100 nM | 38.6 nM | 101 to 1000 nM | 143 nM
4 | CN(CCN)Cc1c[nH]nc1CCc1ccccc1 [Compound 9] | < 100 nM | 10 nM | 101 to 1000 nM | 760 nM
5 | CNCCN(C)Cc1c[nH]nc1C1CCC2(CC1)CC(=O)N(CCC(C)C)C2 (stereo not drawn) [Compound 165] | < 100 nM | 17.6 nM | < 100 nM | 18.1 nM
6 | CNCCN(C)Cc1c[nH]nc1[C@H]1CC[C@H](OCCOc2ccc(OC)cc2)CC1 [Compound 186] | 101 to 1000 nM | 110 nM | < 100 nM | 89.6 nM
7 | CNCCN(C)Cc1c[nH]nc1[C@H]1CC[C@]2(CCOC2)CC1 [Compound 142] | < 100 nM | 7.2 nM | < 100 nM | 15.9 nM
8 | CCC(=O)N(CC1CCOCC1)[C@H]1CC[C@H](c2n[nH]cc2CN(C)CCNC)CC1 [Compound 109] | < 100 nM | 26.7 nM | < 100 nM | 56 nM
9 | CNCCN(C)Cc1c[nH]nc1C1CCC2(CC1)OC(C)CC(C)O2 (stereo not drawn) [Compound 121] | < 100 nM | 15.2 nM | < 100 nM | 32.6 nM
10 | CNCCN(C)Cc1c[nH]nc1[C@H]1CC[C@H](O)C2(CCCCC2)C1 (racemic) [Compound 184, (1S,4S)-4-[4-({methyl[2-(methylamino)ethyl]amino}methyl)-1H-pyrazol-3-yl] spiro[5.5]undecan-1-ol] | < 100 nM | 19.8 nM | < 100 nM | 47.3 nM
11 | CNCCN(C)Cc1c[nH]nc1[C@H]1CC[C@H](OCCOc2ccc(OCCOC)cc2)CC1 [Compound 116] | < 100 nM | 9.8 nM | < 100 nM | 11.8 nM
12 | CNCCN(C)Cc1c[nH]nc1C1CCC(=O)N(Cc2ccccc2)C1 (stereo not drawn) [Compound 115] | < 100 nM | 88.7 nM | 101 to 1000 nM | 196 nM
13 | CNCCN(C)Cc1c[nH]nc1C1CCC(OCCOc2ccccc2)CC1 (stereo not drawn) [Compound 136] | < 100 nM | 2.9 nM | < 100 nM | 6.8 nM
14 | CNCCN(C)Cc1c[nH]nc1C1CCC2(CC1)NC(=O)NC2=O (stereo not drawn) [Compound 175] | < 100 nM | 13.3 nM | < 100 nM | 29.6 nM
15 | CNCCN(C)Cc1c[nH]nc1C1CCC2(CC1)C(=O)NC(=O)N2C (stereo not drawn) [Compound 161] | < 100 nM | 25.6 nM | < 100 nM | 37.4 nM
16 | CCC(=O)N(CC1CCOCC1)[C@H]1CC[C@@H](c2n[nH]cc2CN(C)CCNC)CC1 [Compound 108] | < 100 nM | 61 nM | 101 to 1000 nM | 252 nM
17 | CNCCN(C)Cc1c[nH]nc1[C@H]1CC[C@@]2(CCN(Cc3cc(F)cc(F)c3)C2=O)CC1 [Compound 126] | < 100 nM | 4 nM | < 100 nM | 6.5 nM
18 | CNCCN(C)Cc1c[nH]nc1[C@H]1CC[C@@]2(CCN(Cc3ccc(OCCOC)cc3)C2=O)CC1 [Compound 120] | < 100 nM | 10.1 nM | < 100 nM | 25.1 nM
19 | CNCCN(C)Cc1c[nH]nc1C1CCC2(CC1)CCN(CCC(C)C)C2=O (stereo not drawn) [Compound 163] | < 100 nM | 17.3 nM | < 100 nM | 15.8 nM
20 | CNCCN(C)Cc1c[nH]nc1C1CCC(=O)N(CCc2ccccc2)C1 (stereo not drawn) [Compound 110] | < 100 nM | 13.1 nM | < 100 nM | 42.9 nM
21 | CNCCN(C)Cc1c[nH]nc1[C@H]1CC[C@]2(CCN(Cc3ccc(F)cc3)C2=O)CC1 [Compound 123] | < 100 nM | 8.8 nM | < 100 nM | 24.7 nM
22 | CNCCN(C)Cc1c[nH]nc1C1CC(COC)CC(COC)C1 (stereo not drawn) [Compound 138] | 101 to 1000 nM | 349 nM | 1010 to 3000 nM | 1430 nM
23 | CNCCN(C)Cc1c[nH]nc1[C@H]1CC[C@@]2(CCCO2)CC1 [Compound 143] | < 100 nM | 10.6 nM | < 100 nM | 33 nM
24 | CNCCN(C)Cc1c[nH]nc1[C@H]1CC[C@]2(CCN(CC(C)C)C2=O)CC1 [Compound 124] | < 100 nM | 6.4 nM | < 100 nM | 10.8 nM
25 | CNCCN(C)Cc1c[nH]nc1[C@H]1CC[C@@]2(CCOC2(C)C)CC1 [Compound 106, Methyl [2-(methylamino)ethyl]([3-[(5R,8R)-1,1-dimethyl-2-oxaspiro[4.5]decan-8-yl]-1H-pyrazol-4-yl]methyl)amine] | < 100 nM | 9.5 nM | < 100 nM | 14.5 nM
26 | CCOC1CC2(CCC(c3n[nH]cc3CN(C)CCNC)CC2)CC1OCC (stereo not drawn) [Compound 168] | < 100 nM | 19.8 nM | < 100 nM | 28.1 nM
27 | CNCCN(C)Cc1c[nH]nc1C1CCC2(CC1)NC(=O)N(C)C2=O (stereo not drawn) [Compound 170] | < 100 nM | 21 nM | < 100 nM | 23.7 nM

— patent publication US11512053B2, “Arginine methyltransferase inhibitors and uses thereof” (priority 2013, dated 2022)
